The values below are quoted from earlier work in patent publication US20220039380A1, “PEST CONTROL INCLUDING COMBINED MATING DISRUPTION AND TRAPPING” (Trécé Inc., priority 2019, published 2022).

Where two headings read alike, the source gives them in different places.

Data set [1] has as its system Codling Moth (CM) Cydia pomonella. Particulars: kairomone attractants without pheromone, field demonstrated, Male Lures.
The test system of data set [2] is Oriental Fruit Moth (OFM) Grapholita molesta. Particulars: for % increase in Male capture above pheromone alone: pheromone synergists, field demonstrated.
Data set [3] has as its system Peach Twig Borer (PTB) Anarsia lineatella. Particulars: pheromone synergists, field demonstrated.
The test system of data set [4] is Corn Earworm (CEW) Helocoverpa zea. Particulars: for % increase in Male capture above pheromone alone: pheromone synergists, field demonstrated.
Data set [5] deals with Codling Moth (CM) Cydia pomonella. Particulars: pheromone synergists, suggested (lab flight tunnel demonstrated).
Data set [6] deals with Cabbage Looper (CL) Tricoplusia ni. Particulars: pheromone synergists, field demonstrated.
In data set [7] the test system is Codling Moth (CM) Cydia pomonella. Particulars: pheromone synergists, proven (field demonstrated).
Data set [8] deals with Beet Armyworm (BAW) Spodoptera exigua. Particulars: pheromone synergists, field demonstrated.
The test system is the same in data set [9]. Particulars: Field & Flight Tunnel.
The subject of data set [10] is Omnivorous Leafroller (OLR) Platynota stultana. Particulars: pheromone synergists, field demonstrated.
In data set [11] the test system is Tobacco Budworm (TBW) Heliothis virescens. Particulars: pheromone synergists, field demonstrated.
In data set [12] the test system is Codling Moth (CM) Cydia pomonella. Particulars: for HPVs Reduce/Inhibit Pear Ester Attraction: Females Attraction: codling moth females.
Setting [13] is: codling moth, added to Ethyl (2,4)(E,Z) decadienoate.

On to `C=C/C=C(\C)CCC=C(C)C`, for which, in [1], the “Male lure attraction (in words)” value is “dimethyl nonatriene (less females)”. Moreover, the “% increase in Male capture above pheromone alone” value (from here on “% increase”) is reported as “dimethyl nonatriene (427%)” in data set [2], “dimethyl nonatriene (134%)” in data set [3] and “dimethyl nonatriene (357%)” in data set [4].
In the case of `C=CC(C)(O)CCC=C(C)C` (racemic) [(±) linalool], in data set [5], the Pheromone synergism entry is “(±) linalool (162%)”.
On to `CCC(C)C=NO` (centres unmarked) [2-methyl butanal oxime], for which the “% increase” value in data set [4] and in [6] was 2-methyl butanal oxime (196%) in each case.
For the compound `OCCc1ccccc1` [2-phenylethanol], the “% increase” value in data set [6] is 2-phenylethanol (131%).
Turning to `CC(C)CCO` [3-methyl butanol], in data set [7], the “% increase” value was 3-methyl butanol (184%).
Turning to `CCC/C=C/C=O` [(E)-2-hexenal], the “% increase” value in [4] is “(E)-2-hexenal (176%)”; in data set [8] it was “(E)-2-hexenal (123%)”; in [9] it was “(E)-2-hexenal (139%)”.
`CCC/C=C/CO` [(E)-2-hexenol]: the Pheromone synergism result in [10] is recorded as “(E)-2-hexenol (204%)”. Moreover, the “% increase” value in data set [3] was “(E)-2-hexenol (131%)”; in data set [6], “(E)-2-hexenol (112%)”.
For `CCC/C=C/COC(C)=O` [(E)-2-hexenyl acetate], the “% increase” value in data set [2] was “(E)-2-hexenyl acetate (210%)”; in data set [4] it was “(E)-2-hexenyl acetate (190%)”; in data set [11] it was “(E)-2-hexenyl acetate (183%)”.
In the case of `C=C1CC/C=C(\C)CC[C@@H]2[C@@H]1CC2(C)C` [(E)-beta-caryophyllene], the “% increase” value in data set [2] is on record as “(E)-beta-caryophyllene (147%)”; in data set [4], “(E)-beta-caryophyllene (344%)”.
On to `C=C/C(C)=C/CC=C(C)C` [(E)-beta-ocimene], for which the entries for the “% increase” value in [7] and in data set [4] were “(E)-beta-ocimene (170%)” and “(E)-beta-ocimene (141%)”, respectively.
As to `C=CC(C)(O)CC/C=C(\C)CCC=C(C)C` (centres unmarked) [(E)-nerolidol], the “% increase” value in data set [4] is reported as “(E)-nerolidol (193%)”.
With `C=C/C(C)=C/C/C=C(\C)CCC=C(C)C` [(E,E)-alpha-farnesene], the “HPVs Reduce/Inhibit Pear Ester Attraction” value in data set [12] (setting [13]) is given as “(E,E)-alpha-farnesene (−68%)”. The “% increase” value in [3] is listed as “(E,E)-alpha-farnesene (144%)”.
For the compound `CC1=CC[C@@H]2C[C@H]1C2(C)C` [(R)-(+)-alpha-pinene], the “% increase” value in data set [4] is recorded as “(R)-(+)-alpha-pinene (348%)”.
For the compound `CC1=CC[C@H]2C[C@@H]1C2(C)C` [(S)-(−)-alpha-pinene], the “% increase” value in data set [4] is given as “(S)-(−)-alpha-pinene (215%)”.
Consider `CC/C=C\CCO` [(Z)-3-hexenol], for which, in [10], the Pheromone synergism result is listed as “(Z)-3-hexenol (193%)”. For the same compound, the “% increase” value is on record as “(Z)-3-hexenol (117%)” in data set [3], “(Z)-3-hexenol (128%)” in data set [4], “(Z)-3-hexenol (152%)” in data set [6] and “(Z)-3-hexenol (121%)” in [9].
For `CC/C=C\CCOC(C)=O` [(Z)-3-hexenyl acetate], the Pheromone synergism result in [5] is recorded as “(Z)-3-hexenyl acetate (151%)”. For the same compound, the “HPVs Enhance Pear Ester Attraction (in words)” value in data set [12] (setting [13]) was “(Z)-3-hexenyl acetate (additive)”. For the same compound, the “% increase” value is reported as “(Z)-3-hexenyl acetate (258%)” in data set [2], “(Z)-3-hexenyl acetate (143%)” in data set [3], “(Z)-3-hexenyl acetate (217%)” in [11] and “(Z)-3-hexenyl acetate (125%)” in data set [9].
Turning to `C=C/C(C)=C/C/C=C(/C)CCC=C(C)C` [(Z,E)-alpha-farnesene], the “HPVs Reduce/Inhibit Pear Ester Attraction: Females Attraction” value in data set [12] was “(Z,E)-alpha-farnesene (−87%)”.
Turning to `CC(C)=CCC[C@]1(C)[C@H]2CC=C(C)[C@@H]1C2` [alpha-(E)-bergamotene], the “% increase” value in [4] is recorded as “alpha-(E)-bergamotene (285%)”.
With `CC1=CC[C@H](C(C)C)C=C1` [alpha-phellandrene], in data set [4], the “% increase” value is recorded as “alpha-phellandrene (152%)”.
For `O=Cc1ccccc1` [benzaldehyde], the “Pheromone Antagonists” value in [2] is reported as “benzaldehyde (68%)”.
Turning to `C=C1C=CC(C(C)C)CC1` (stereo not drawn) [beta-phellandrene], in [4], the “% increase” value is recorded as “beta-phellandrene (342%)”.
Regarding `CCCCCC(=O)OCCCC` [butyl hexanoate], the “HPVs Reduce/Inhibit Pear Ester Attraction” value in data set [12] (setting [13]) is “butyl hexanoate (−45%)”.
For `CC(C)=CCCC(C)=CCCC(C)=CCO` [farnesol], the “HPVs Reduce/Inhibit Pear Ester Attraction” value in data set [12] (setting [13]) is reported as “farnesol (−56%)”.
Turning to `CC1=CCC(C(C)C)=CC1` [gamma-terpinene], in data set [7], the “% increase” value was “gamma-terpinene (131%)”.
With `CCCCCC(C)O` (centres unmarked) [heptan-2-ol], the “% increase” value in data set [4] was “heptan-2-ol (283%)”.
`CCCCCC=O` [hexanal]: the “% increase” value is recorded as “hexanal (237%)” in data set [4] and “hexanal (107%)” in data set [8].
As to `CCCCCCO` [hexanol], the “% increase” value in [6] is on record as “hexanol (132%)”.
Consider `CCCCCCOC(C)=O` [hexyl acetate], for which the “% increase” value in data set [2] is reported as “hexyl acetate (159%)”; in data set [4], “hexyl acetate (176%)”.
Take `C/C1=C\CC/C(C)=C/CC(C)(C)/C=C/C1` [humulene]: the “% increase” value in [4] is “humulene (220%)”.
With `C=C(C)[C@H]1CC=C(C)CC1` [limonene], the “% increase” value was “limonene (132%)” in [3] and “limonene (150%)” in [4].
Take `CC/C=C\CC1C(=O)CCC1CC(=O)OC` (centres unmarked) [methyl jasmonate]: in [4], the “% increase” value was “methyl jasmonate (255%)”.
Consider `CCCCCCCC(=O)OC` [methyl octanoate], for which the “% increase” value in data set [3] is reported as “methyl octanoate (172%)”.
`COC(=O)c1ccccc1O` [methyl salicylate]: the “% increase” value in data set [4] is recorded as “methyl salicylate (172%)”.
As to `C=CC(=C)CCC=C(C)C` [myrcene], in data set [7], the “% increase” value is recorded as “myrcene (190%)”.
For `CCCCCCCCC=O` [nonanal], the “HPVs Reduce/Inhibit Pear Ester Attraction: Females Attraction” value in data set [12] was “nonanal (−95%)”. The “% increase” value in data set [4] is listed as “nonanal (219%)”.
Take `Cc1ccc(C(C)C)cc1` [para-cymene]: the “% increase” value in data set [7] is “para-cymene (187%)”.
Turning to `O=CCc1ccccc1` [phenyl acetaldehyde], the “Blossom Volatiles, Gaura Volatiles, repeated below the heading Pheromone Antagonists” value in data set [4] was “phenyl acetaldehyde (216%)”. For the same compound, the “% increase” value in data set [4] was “phenyl acetaldehyde (216%)”; in data set [6], “phenyl acetaldehyde (188%)”; in data set [9], “phenylacetaldehyde (135%)”.
Take `CC1=CCC(O)(C(C)C)CC1` (centres unmarked) [terpinen-4-ol]: the “% increase” value in [7] is given as “terpinen-4-ol (206%)”.
In the case of butanol, the “% increase” value in [7] is “butanol (202%)”.
